Data published in PMC5278571, “Optimal doses of caspofungin during continuous venovenous hemodiafiltration in critically ill patients” (Critical Care, 2017).
Read-outs that look alike come from different tables or passages of the source.

Test: Pharmacokinetics of caspofungin during continuous venovenous hemodiafiltration (CVVHD)
Assay type: in vivo, human
Details: for Vd / t½ / AUC0-24 Arterial / AUC0-24 Difference venous to arterial (%) / AUC0-24 Venous / Cl / Cmax / Ctrough: steady state, CVVHD; for t½: elimination
Procedure: The aim of the present study was to describe the pharmacokinetics of caspofungin in 12 critically ill adult patients with suspected or proven invasive candidiasis who were receiving continuous venovenous hemodiafiltration (CVVHD).
CVVHD was performed using a polysulfone hemofilter (Fresenius, Germany). Caspofungin was administered at usual doses. Pre-filter and post-filter blood, ultradiafiltrate, and urine samples were collected at steady state on day 3 or later, before the dose infusion started, and 0.5, 1, 1.5, 2, 4, 6, 8, and 24 h after the infusion ended.

CC[C@H](C)C[C@H](C)CCCCCCCCC(=O)N[C@H]1C[C@@H](O)[C@@H](NCCN)NC(=O)[C@@H]2[C@@H](O)CCN2C(=O)[C@H]([C@H](O)CCN)NC(=O)[C@H]([C@H](O)[C@@H](O)c2ccc(O)cc2)NC(=O)[C@@H]2C[C@@H](O)CN2C(=O)[C@H]([C@@H](C)O)NC1=O [caspofungin]
Vd (human, in vivo, iv, Mean ± SD of 12 patients, SD, read-out: Vd): 16.4 ± 5.4 L
Mean concentration in the post-filter line compared with the pre-filter line (n = 12 patients, rules out adsorption to the filter): slightly higher
t½ (patient 1): 27.4 h
AUC0-24 Arterial (patient 1): 140.0 µg·h/mL
AUC0-24 Difference venous to arterial (%) (patient 1): 29%
AUC0-24 Venous (patient 1): 180.0 µg·h/mL
Cl (patient 1): 0.356 L/h
Cmax (patient 1): 12500 ng/mL
Ctrough (patient 1): 3470 ng/mL
Vd (patient 1): 14.1 L
t½ (patient 2): 21.0 h
AUC0-24 Arterial (patient 2): 88.3 µg·h/mL
AUC0-24 Difference venous to arterial (%) (patient 2): 20%
AUC0-24 Venous (patient 2): 106.0 µg·h/mL
Cl (patient 2): 0.567 L/h
Cmax (patient 2): 7800 ng/mL
Ctrough (patient 2): 2100 ng/mL
Vd (patient 2): 17.1 L
t½ (patient 3): 18.8 h
AUC0-24 Arterial (patient 3): 124.0 µg·h/mL
AUC0-24 Difference venous to arterial (%) (patient 3): 23%
AUC0-24 Venous (patient 3): 152.0 µg·h/mL
Cl (patient 3): 0.402 L/h
Cmax (patient 3): 8800 ng/mL
Ctrough (patient 3): 3100 ng/mL
Vd (patient 3): 10.9 L
t½ (patient 4): 24.3 h
AUC0-24 Arterial (patient 4): 65.4 µg·h/mL
AUC0-24 Difference venous to arterial (%) (patient 4): 18%
AUC0-24 Venous (patient 4): 77.4 µg·h/mL
Cl (patient 4): 0.765 L/h
Cmax (patient 4): 6900 ng/mL
Ctrough (patient 4): 1300 ng/mL
Vd (patient 4): 26.8 L
t½ (patient 5): 16.5 h
AUC0-24 Arterial (patient 5): 68.0 µg·h/mL
AUC0-24 Difference venous to arterial (%) (patient 5): 32%
AUC0-24 Venous (patient 5): 90.0 µg·h/mL
Cl (patient 5): 0.735 L/h
Cmax (patient 5): 4800 ng/mL
Ctrough (patient 5): 1500 ng/mL
Vd (patient 5): 17.5 L
t½ (patient 6): 13.8 h
AUC0-24 Arterial (patient 6): 102.0 µg·h/mL
AUC0-24 Difference venous to arterial (%) (patient 6): 5%
AUC0-24 Venous (patient 6): 107.0 µg·h/mL
Cl (patient 6): 0.683 L/h
Cmax (patient 6): 10700 ng/mL
Ctrough (patient 6): 2500 ng/mL
Vd (patient 6): 13.6 L
t½ (patient 7): 13.6 h
AUC0-24 Arterial (patient 7): 65.6 µg·h/mL
AUC0-24 Difference venous to arterial (%) (patient 7): 20%
AUC0-24 Venous (patient 7): 78.8 µg·h/mL
Cl (patient 7): 0.762 L/h
Cmax (patient 7): 8300 ng/mL
Ctrough (patient 7): 1600 ng/mL
Vd (patient 7): 15.0 L
t½ (patient 8): 19.3 h
AUC0-24 Arterial (patient 8): 100.0 µg·h/mL
AUC0-24 Difference venous to arterial (%) (patient 8): 13%
AUC0-24 Venous (patient 8): 113.0 µg·h/mL
Cl (patient 8): 0.499 L/h
Cmax (patient 8): 9500 ng/mL
Ctrough (patient 8): 2700 ng/mL
Vd (patient 8): 13.9 L
t½ (patient 9): 14.3 h
AUC0-24 Arterial (patient 9): 102.0 µg·h/mL
AUC0-24 Difference venous to arterial (%) (patient 9): 25%
AUC0-24 Venous (patient 9): 127.0 µg·h/mL
Cl (patient 9): 0.685 L/h
Cmax (patient 9): 9200 ng/mL
Ctrough (patient 9): 2300 ng/mL
Vd (patient 9): 14.1 L
t½ (patient 10): 15.0 h
AUC0-24 Arterial (patient 10): 121.0 µg·h/mL
AUC0-24 Difference venous to arterial (%) (patient 10): 17%
AUC0-24 Venous (patient 10): 142.0 µg·h/mL
Cl (patient 10): 0.578 L/h
Cmax (patient 10): 12600 ng/mL
Ctrough (patient 10): 2900 ng/mL
Vd (patient 10): 12.5 L
t½ (patient 11): 26.2 h
AUC0-24 Arterial (patient 11): 190.0 µg·h/mL
AUC0-24 Difference venous to arterial (%) (patient 11): 18%
AUC0-24 Venous (patient 11): 224.0 µg·h/mL
Cl (patient 11): 0.368 L/h
Cmax (patient 11): 11500 ng/mL
Ctrough (patient 11): 4000 ng/mL
Vd (patient 11): 13.9 L
t½ (patient 12): 16.5 h
AUC0-24 Arterial (patient 12): 60.1 µg·h/mL
AUC0-24 Difference venous to arterial (%) (patient 12): 24%
AUC0-24 Venous (patient 12): 74.5 µg·h/mL
Cl (patient 12): 1.165 L/h
Cmax (patient 12): 8500 ng/mL
Ctrough (patient 12): 1900 ng/mL
Vd (patient 12): 27.7 L
Caspofungin in ultradiafiltrate samples (ultradiafiltrate, CVVHD with polysulfone hemofilter, HPLC): negligible
Caspofungin in urine samples (urine, patients on CVVHD, HPLC): negligible
